Experimental data reported in article PMC6710338, “Turning a Collagenesis-Inducing Peptide Into a Potent Antibacterial and Antibiofilm Agent Against Multidrug-Resistant Gram-Negative Bacteria” (Frontiers in Microbiology, 2019).
≈ marks a conversion by molar mass, not a printed value. Like-named read-outs stand apart in the source and are kept apart here. Peptide text beside a SMILES is read from it.

Key:
S. aureus ATCC 25923 = assay: MIC, broth microdilution (CLSI), ATCC reference strain; format: cell-based, Staphylococcus aureus
Experimental: (§1) The minimum inhibitory concentration (MIC) of synthetic peptides was determined using the broth microdilution method in cation-adjusted Mueller-Hinton broth (MHB2 – Sigma-Aldrich, St. Louis, MO, United States), according to the recommendations of the Clinical and Laboratory Standards Institute ([CLSI, 2012]), against four reference strains, namely, P. aeruginosa ATCC 27853, E. coli ATCC 25922, S. aureus ATCC 25923 and Enterococcus faecalis ATCC 29212. MIC values of peptide 3.1-PP4 were also determined against MDR clinical isolates of P. aeruginosa (PA002, PA004, Pa3, Pa4), E. coli (Ec1, Ec2, EC001, EC002, EC003) and K. pneumoniae (KP004, KP007, KP010). The peptides were tested in the concentration range of 1–1024 μg/mL. The minimum bactericidal concentration (MBC) was determined as previously reported ([Bessa et al., 2018]). According to CLSI guidelines for antimicrobial susceptibility testing, MIC values were determined for all peptides against ATCC reference strains of two Gram-positive (S. aureus ATCC 25923 and E. faecalis ATCC 29212), and two Gram-negative (P. aeruginosa ATCC 27853 and E. coli ATCC 25922) bacterial species, and are shown in Table 2.

P. aeruginosa ATCC 27853 = assay: as above; format: cell-based, Pseudomonas aeruginosa
Experimental: as §1

[1] = test system: MDR isolates of P. aeruginosa, E. coli and K. pneumoniae; assay: Minimum bactericidal concentration (MBC); format: cell-based; settings: all MDR isolates tested
Experimental: as §1, with “2018]).” for “2018]). According to CLSI guidelines for antimicrobial susceptibility testing, MIC values were determined for all peptides against ATCC reference strains of two Gram-positive (S. aureus ATCC 25923 and E. faecalis ATCC 29212), and two Gram-negative (P. aeruginosa ATCC 27853 and E. coli ATCC 25922) bacterial species, and are shown in Table 2.”
In view of the above results, peptide conjugate 3.1-PP4 was selected for further investigation of its activity against MDR isolates of three Gram-negative bacterial species, namely, P. aeruginosa (four isolates), E. coli (five isolates), and K. pneumoniae (four isolates), whose antimicrobial resistance patterns are provided in the Supplementary Table S1. […]

[2] = test system: preformed biofilm of MDR P. aeruginosa PA004; assay: Biofilm metabolic activity (MTT); format: cell-based, Pseudomonas aeruginosa; settings: isolate PA004, 24 h preformed biofilm, 20 × MIC, 24 h at 37°C, absorbance 570 nm
Experimental: The respective control biofilms were equally formed but in absence of the peptide (only TSB medium was used). Afterward, the bacterial metabolic activity of biofilms was quantified after adding 3-(4,5-dimethylthiazole-2-yl)-2,5-diphenyl tetrazolium bromide (MTT, 0.5 mg/mL – Sigma-Aldrich, St. Louis, MO, United States) for 3 h at 37°C in the dark. DMSO was used to dissolve the formazan crystals formed and the absorbance at 570 nm was measured. Two independent experiments were performed in four replicates.
The influence of the peptide on the metabolic activity of preformed biofilms of one P. aeruginosa (PA004) and three K. pneumoniae (KP004, KP007, and KP010) isolates was also assessed, through a standard MTT assay.

E. coli ATCC 25922 = assay: MIC, broth microdilution (CLSI), ATCC reference strain; format: cell-based, Escherichia coli; settings: E. coli ATCC 25922
Experimental: as §1

[3] = test system: preformed biofilms of MDR K. pneumoniae isolates; assay: Effect on 24 h preformed biofilms (OD600 of planktonic phase); format: cell-based, Klebsiella pneumoniae; settings: 20 × MIC, vs non-treated biofilm
Experimental: The efficacy of peptide 3.1-PP4 on 24 h preformed biofilms of PA002, PA004, KP004, KP007, and KP010 was also evaluated ([Gomes et al., 2014]). Briefly, biofilms were grown in TSB from a starting inoculum of 1 × 10^6 CFU/mL in 96-well microtiter plates. […] The optical density at 600 nm (OD600) was measured at time 0 and after incubation for 24 h at 37°C. The reduction in the biofilm proliferation was calculated in comparison to the respective non-treated biofilms. Two independent experiments were performed in triplicate.
In the case of control biofilms, the second 24 h growth period occurred in the absence of the peptide. Based on the apparent higher efficiency of peptide 3.1-PP4 to inhibit the formation of K. pneumoniae than P. aeruginosa biofilms, only two MDR isolates of the latter were included in this assay, whereas three MDR K. pneumoniae were tested. Optical density of the planktonic phase, as a measure of biofilm proliferation, was reduced in all peptide-treated biofilms, ranging from 3 to 21% reduction on P. aeruginosa isolates, and from 34 to 56% reduction on K. pneumoniae isolates (Table 4).

[4] = test system: MDR clinical isolates of K. pneumoniae (KP004, KP007, KP010); format: cell-based, Klebsiella pneumoniae; settings: for MIC: MHB2
Experimental: as §1, with “2018]).” for “2018]). According to CLSI guidelines for antimicrobial susceptibility testing, MIC values were determined for all peptides against ATCC reference strains of two Gram-positive (S. aureus ATCC 25923 and E. faecalis ATCC 29212), and two Gram-negative (P. aeruginosa ATCC 27853 and E. coli ATCC 25922) bacterial species, and are shown in Table 2.”
In view of the above results, peptide conjugate 3.1-PP4 was selected for further investigation of its activity against MDR isolates of three Gram-negative bacterial species, namely, P. aeruginosa (four isolates), E. coli (five isolates), and K. pneumoniae (four isolates), whose antimicrobial resistance patterns are provided in the Supplementary Table S1. MDR isolates of K. pneumoniae were included in this analysis given (i) the high prevalence of K. pneumoniae in HAI ([Zheng et al., 2017]), (ii) that K. pneumoniae isolates used are carbanepem-resistant strains of an Enterobacteriaceae species, meaning that they are class 1 priority pathogens for the research and development of new antibiotics according to the WHO ([WHO, 2017]), and (iii) K. pneumoniae bacteria are usually better biofilm producers than the other Enterobacteriaceae species used, E. coli ([Reisner et al., 2006]). MIC values obtained are shown in Table 3, and confirm peptide’s 3.1-PP4 potent action against Gram-negative bacteria, including MDR isolates, with a selectivity index (SI), i.e., ratio of IC50 values for mammalian vs. bacterial cells, ranging from ca. 9–69. In fact, for P. aeruginosa and E. coli, MIC against MDR isolates were in the same range, or below, of those previously found for ATCC reference strains (Table 2). For K. pneumoniae, MIC values ranged between 1 and 4 μM, which is remarkable.

- MIC (S. aureus ATCC 25923; ATCC 25923): 16 µM
- MIC (S. aureus ATCC 25923; S. aureus ATCC 25923, broth microdilution in MHB2, CLSI, range tested 1–1024 μg/mL): 32 µg/mL
- MIC (P. aeruginosa ATCC 27853; ATCC 27853): 2.1 µM
- MIC (P. aeruginosa ATCC 27853; P. aeruginosa ATCC 27853, broth microdilution in MHB2, CLSI, range tested 1–1024 μg/mL): 4 µg/mL
- MIC (P. aeruginosa ATCC 27853; P. aeruginosa ATCC 27853, broth microdilution in MHB2, CLSI, value in parentheses): 2 µM
- MIC (E. coli ATCC 25922; broth microdilution in MHB2, CLSI, value in parentheses): 1.0 µM
- MIC (E. coli ATCC 25922; broth microdilution in cation-adjusted Mueller-Hinton broth (MHB2), CLSI, range tested 1–1024 μg/mL): 2 µg/mL
- MIC ([4]; MDR K. pneumoniae isolate KP004): 4 µg/mL (≈ 2.06 µM)
- MIC ([4]; MDR K. pneumoniae isolate KP007): 8 µg/mL (≈ 4.12 µM)
- MIC ([4]; MDR K. pneumoniae isolate KP010): 2 µg/mL (≈ 1.03 µM)
- MIC values for K. pneumoniae ([4]; MDR clinical isolates of (KP004, KP007, KP010)): 1 to 4 µM
Structure (SMILES): CC(C)C[C@H](NC(=O)[C@H](Cc1c[nH]c2ccccc12)NC(=O)[C@H](CCCCN)NC(=O)[C@H](CC(C)C)NC(=O)[C@H](CC(C)C)NC(=O)[C@H](CCCCN)NC(=O)[C@@H](N)CCCCN)C(=O)N[C@@H](CC(C)C)C(=O)N[C@@H](CCCCN)C(=O)N[C@@H](CC(C)C)C(=O)N[C@@H](CC(C)C)C(=O)N[C@@H](CCCCN)C(=O)N[C@H](C(=O)N[C@H](C(=O)N[C@@H](CCCCN)C(=O)N[C@@H](CO)C(N)=O)[C@@H](C)O)[C@@H](C)O [Peptide 3.1-PP4] (H-KKLLKWLLKLLKTTKS-NH2; N-terminus assumed)
- minimal bactericidal concentrations (MBC) [1]: match the MIC in all cases
- % reduction of metabolic activity in peptide-treated biofilms [2]: 8.3%
- % reduction in biofilm proliferation upon treatment ([3]; isolate KP004, 24 h preformed biofilm): 56%
- % reduction in biofilm proliferation upon treatment ([3]; isolate KP007, 24 h preformed biofilm): 34%
- % reduction in biofilm proliferation upon treatment ([3]; isolate KP010, 24 h preformed biofilm): 49%
